Consider 26 molecules from patent US9090593B2, “Bicyclic compounds as Pim inhibitors” (AMGEN INC., priority 2010, dated 2015).

Experiment [1] has as its target T1, full length recombinant Pim-1 protein (Homo sapiens, UniProt P11309).
T1 construct: by full length recombinant Pim-1, Pim-2, or Pim-3 protein; hexahistidine tag followed by a thrombin cleavage site (N); made in house; host or cells: Sf9 (baculovirus) or E. coli (pET28)
As to the kind of experiment: Pim-1 enzyme assay (HTRF, phosphorylation of biotinylated-BAD (S112) peptide). The note with it: read-out: Pim_1_IC50. The experiment is classed as biochemical. Put shortly:
(§1)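 HTRF readout (europium anti-pBAD S112 antibody, streptavidin-APC) of biotin-BAD peptide phosphorylation by recombinant full-length Pim-1 or Pim-2, buffer 60 mM Hepes pH 7.0, 2 mM DTT, 0.05% BSA. Enzymes were His6-tagged, from baculovirus/Sf9 or E. coli.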

Experiment [2] has as its target T2, Pim-1 stably transfected into the U2OS human osteogenic sarcoma line (Homo sapiens, UniProt P11309).
T2 construct: expressed in transfected cells; host or cells: U2OS human osteogenic sarcoma line
The experiment can be described thus: Pim cell assay, phospho-BAD normalized against total BAD, U2OS stably transfected with Pim-1. Format: cell-based. The following applies: U2OS stably transfected with Pim-1; phospho-BAD normalized against total BAD; 29 min incubation; read-out: Pim1_Cell_IC50_. Put shortly:
(§2)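 Read-out is phospho-BAD relative to total BAD, by MSD electrochemiluminescence on lysates, expressed as % phosphoprotein = (2×phospho)/(phospho+total)×100. Engineered U2OS lines carrying stably transfected Pim-1 or Pim-2 received 10-point compound dilutions at 0.3% final DMSO after overnight culture at 37 °C; DMSO-only wells served as high control.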

The target of experiment [3] is T3, Pim-2 stably transfected into the U2OS human osteogenic sarcoma line (Homo sapiens, UniProt Q9P1W9).
T3 construct: expressed in transfected cells; host or cells: U2OS human osteogenic sarcoma line
T3 sequence (Q9P1W9 whole entry): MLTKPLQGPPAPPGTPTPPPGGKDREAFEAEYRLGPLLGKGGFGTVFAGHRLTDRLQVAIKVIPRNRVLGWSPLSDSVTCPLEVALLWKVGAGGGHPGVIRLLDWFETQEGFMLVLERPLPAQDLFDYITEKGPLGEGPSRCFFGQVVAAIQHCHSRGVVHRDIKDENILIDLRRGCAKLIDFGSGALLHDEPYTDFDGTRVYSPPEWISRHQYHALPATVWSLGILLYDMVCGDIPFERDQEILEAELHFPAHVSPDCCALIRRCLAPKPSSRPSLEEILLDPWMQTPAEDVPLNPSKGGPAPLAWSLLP
As to the kind of experiment: Pim cell assay, phospho-BAD normalized against total BAD, U2OS stably transfected with Pim-2. The experiment is classed as cell-based. The note with it: U2OS stably transfected with Pim-2; phospho-BAD normalized against total BAD; 29 min incubation; read-out: Pim2_Cell_IC50_. The method in brief: as §2

The subject of a further experiment is KMS-Cell. The experiment can be described thus: KMS cell IC50 (Table 4). Format: cell-based. The note with it: KMS cells.
The target of experiment [4] is T4, full length recombinant Pim-2 protein (Homo sapiens, UniProt Q9P1W9).
T4 construct: by full length recombinant Pim-1, Pim-2, or Pim-3 protein; hexahistidine tag followed by a thrombin cleavage site (N); made in house; host or cells: Sf9 (baculovirus) or E. coli (pET28)
T4 sequence (Q9P1W9 whole entry): as above
As to the kind of experiment: Pim-2 enzyme assay (HTRF, phosphorylation of biotinylated-BAD (S112) peptide). The experiment is classed as biochemical. The following applies: read-out: Pim2_IC50. The method in brief:
as §1

T1 sequence (P11309 whole entry): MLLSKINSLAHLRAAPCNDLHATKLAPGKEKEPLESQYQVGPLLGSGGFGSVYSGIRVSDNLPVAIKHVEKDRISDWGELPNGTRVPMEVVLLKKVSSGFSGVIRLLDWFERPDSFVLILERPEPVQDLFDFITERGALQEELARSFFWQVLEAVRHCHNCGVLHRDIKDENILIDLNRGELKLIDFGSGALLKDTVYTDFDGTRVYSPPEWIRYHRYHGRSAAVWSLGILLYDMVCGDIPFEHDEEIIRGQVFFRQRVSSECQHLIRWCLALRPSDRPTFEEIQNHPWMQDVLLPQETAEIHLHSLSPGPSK
T2 sequence (P11309 whole entry): as above

Regarding `CC1CCNCC1Oc1cncc(-c2n[nH]c3ccc(-c4c(F)cccc4F)cc23)n1` (single isomer, unassigned) [Example 424], the IC50 in experiment [1] was 1 nM; in experiment [2] it was 433 nM; in experiment [3], 2470 nM; in the experiment with KMS-Cell, 6280 nM; in experiment [4], 4 nM.

For `O=c1cc(-c2n[nH]c3ccc(-c4c(F)cccc4F)cc23)nc(N[C@@H]2CCCNC2)[nH]1` [Example 282, (R)-6-(5-(2,6-difluorophenyl)-1H-indazol-3-yl)-2-(piperidin-3-ylamino)pyrimidin-4(3H)-one], the figures for the IC50 (in experiment [2]; in experiment [3]; in the experiment with KMS-Cell) were 1170 nM, above 10000 nM and 2650 nM, respectively.

`c1cc2[nH]nc(-c3cncc(OC4CCNCC4)n3)c2cc1-c1cncc(C2CC2)n1` [Example 364, 5-(6-cyclopropyl-2-pyrazinyl)-3-(6-(4-piperidinyloxy)-2-pyrazinyl)-1H-indazole]: the IC50 was found to be 22 nM in experiment [2], 3460 nM in experiment [3], 5850 nM in the experiment on KMS-Cell and 5 nM in experiment [4].

For `Clc1ccccc1-c1ccc2[nH]nc(-c3cncc(O[C@H]4CNCCC45CC5)n3)c2c1` [Example 406], the IC50 in experiment [1] worked out at 2 nM; in experiment [2], 460 nM; in experiment [3], 5310 nM; in the experiment with KMS-Cell it was 2360 nM; in experiment [4], 1 nM.

In the case of `N#Cc1cccc(F)c1-c1ccc2[nH]nc(-c3cncc(O[C@H]4CNCCC45CC5)n3)c2c1` [Example 409], the IC50 is 1 nM in experiment [1], 2680 nM with KMS-Cell and 1 nM in experiment [4].

As for `N#Cc1ncccc1-c1ccc2[nH]nc(-c3cncc(O[C@H]4CNCCC45CC5)n3)c2c1` [Example 410], the results for the IC50 (in experiment [1]; in the experiment with KMS-Cell; in experiment [4]) were 9 nM, 1750 nM and 7 nM, respectively.

For `N#Cc1ccncc1-c1ccc2[nH]nc(-c3cncc(O[C@H]4CNCCC45CC5)n3)c2c1` [Example 411], the IC50 in experiment [1] is 4 nM; with KMS-Cell, 1220 nM; in experiment [4] it was 12 nM.

For the molecule `Fc1ccc(F)c(-c2ccc3[nH]nc(-c4cncc(O[C@H]5CNCCC56CC6)n4)c3c2)c1` [Example 442], the IC50 was found to be 2 nM in experiment [1], 6430 nM with KMS-Cell and 4 nM in experiment [4].

In the case of `Fc1ccc(Cl)cc1-c1ccc2[nH]nc(-c3cncc(O[C@H]4CNCCC45CC5)n3)c2c1` [Example 443], the IC50 in experiment [1] was 1 nM; with KMS-Cell it was 4640 nM; in experiment [4] it was 5 nM.

As to `Fc1cccc(F)c1-c1ccc2[nH]nc(-c3cncc(OC4CNCC5CC54)n3)c2c1` (stereo not drawn) [Example 444], the IC50 in experiment [1] was found to be 4 nM; with KMS-Cell, 5050 nM; in experiment [4], 28 nM.

On to `c1cc2[nH]nc(-c3cncc(O[C@H]4CNCCC45CC5)n3)c2cc1C1CC1` [Example 446], for which the IC50 was found to be 3 nM in experiment [1], 1730 nM in the experiment on KMS-Cell and 5 nM in experiment [4].

With `c1cc2[nH]nc(-c3cncc(O[C@H]4CNCCC45CC5)n3)c2cc1C1CCCC1` [Example 447], the IC50 is 4 nM in experiment [1], 3160 nM with KMS-Cell and 4 nM in experiment [4].

For the molecule `Fc1ccnc(F)c1-c1ccc2[nH]nc(-c3cncc(O[C@H]4CNCCC45CC5)n3)c2c1` [Example 451], the IC50 in experiment [1] is 3 nM; in the experiment with KMS-Cell, 1470 nM; in experiment [4], 9 nM.

As to `Fc1cccc(F)c1-c1ccc2[nH]nc(-c3cncc(OC4CNCC5CC54)n3)c2c1` (stereo not drawn) [Example 452], the IC50 in experiment [1] turned out to be 20 nM; with KMS-Cell it was 9410 nM; in experiment [4] it was 97 nM.

Turning to `c1cc2[nH]nc(-c3cncc(O[C@H]4CNCCC45CC5)n3)c2cc1C1CCC1` [Example 453], the IC50 in experiment [1] amounted to 4 nM; with KMS-Cell it was 4190 nM; in experiment [4], 7 nM.

Turning to `N#Cc1ccc(-c2ccc3[nH]nc(-c4cncc(O[C@H]5CNCCC56CC6)n4)c3c2)c(F)c1` [Example 456], the IC50 in experiment [1] stood at 4 nM; in the experiment with KMS-Cell, 5490 nM; in experiment [4], 3 nM.

Regarding `NS(=O)(=O)c1ccc(-c2ccc3[nH]nc(-c4cncc(O[C@H]5CNCCC56CC6)n4)c3c2)c(F)c1` [Example 463], the IC50 is 2 nM in experiment [1], 1610 nM in the experiment on KMS-Cell and 1 nM in experiment [4].

Consider `CS(=O)(=O)c1cc(F)c(-c2ccc3[nH]nc(-c4cncc(O[C@H]5CNCCC56CC6)n4)c3c2)c(F)c1` [Example 467], for which the IC50 was 3 nM in experiment [1], 546 nM in the experiment with KMS-Cell and 3 nM in experiment [4].

Regarding `COC(=O)c1ccc2[nH]nc(-c3ccnc(NC4CCNCC4)n3)c2c1` [Example 489], the IC50 in experiment [1] turned out to be 2 nM; in experiment [2], 202 nM; in experiment [3], 4480 nM; in the experiment on KMS-Cell, 1690 nM; in experiment [4], 3 nM.

`COC(=O)c1ccc2[nH]nc(-c3ccnc(N4CCC(N)CC4)n3)c2c1` [Example 491]: the IC50 is 4 nM in experiment [1], 1450 nM with KMS-Cell and 8 nM in experiment [4].

For the molecule `O=C(O)c1ccc2[nH]nc(-c3cncc(N[C@@H]4CCCNC4)n3)c2c1` [Example 495], the IC50 in experiment [1] was 70 nM; in the experiment with KMS-Cell it was above 15800 nM; in experiment [4] it was 159 nM.

`CN(C)c1nc(-c2c[nH]c3ccc(-c4cncc(C5CC5)n4)cc23)cc(=O)[nH]1` [Example 527]: the IC50 in experiment [1] was 13 nM; in experiment [2] it was 354 nM; in experiment [3] it was above 31600 nM; in the experiment with KMS-Cell, above 15800 nM; in experiment [4], 79 nM.

For the molecule `O=c1cc(-c2n[nH]c3ccc(-c4c(F)cccc4F)cc23)nc(O[C@@H]2CCCNC2)[nH]1` [Example 529], the IC50 is 2 nM in experiment [1], 2620 nM in the experiment with KMS-Cell and 2 nM in experiment [4].

`c1coc(-c2ccc3[nH]nc(-c4cncc(N[C@@H]5CCCNC5)n4)c3c2)n1` [Example 541]: the IC50 was determined as 2 nM in experiment [1], 6040 nM in the experiment with KMS-Cell and 24 nM in experiment [4].

As for `c1coc(-c2ccc3[nH]cc(-c4cncc(N[C@@H]5CCCNC5)n4)c3c2)n1` [Example 542], the figures for the IC50 (in experiment [1]; with KMS-Cell; in experiment [4]) were 2 nM, 15900 nM and 24 nM, respectively.

Turning to `O=c1cc(-c2n[nH]c3ccc(-c4c(F)cccc4F)cc23)nc(OC2CNCCC2F)[nH]1` (stereo not drawn) [Example 554], the IC50 in experiment [1] was 7 nM; in the experiment with KMS-Cell, 6260 nM; in experiment [4] it was 10 nM.
